ChEMBL document CHEMBL4651402, “Screening of ~5500 FDA-approved drugs and clinical candidates for anti-SARS-CoV-2 activity” (2021)

Test system: SARS-CoV-2
Experiment: microbe, parasite or virus in culture
Conditions: Severe acute respiratory syndrome coronavirus 2, Vero C1008, 48 h

Structure (SMILES): CCCc1nc2c(C)cc(-c3nc4ccccc4n3C)cc2n1Cc1ccc(-c2ccccc2C(=O)O)cc1
- IC50: > 20 µM
- IC50 (read-out: pIC50 (converted)): > 20 µM

Structure (SMILES): Nc1nc(=O)n([C@H]2C[C@H](O)[C@@H](CO)O2)cc1F
- IC50: > 20 µM
- IC50 (read-out: pIC50 (converted)): > 20 µM

Structure (SMILES): CS(=O)(=O)Nc1ccc2c(c1)S(=O)(=O)N=C(C1=C(O)C3C4CCC(C4)C3N(Cc3ccc(F)cc3)C1=O)N2 (stereo not drawn)
- IC50: > 20 µM
- IC50 (read-out: pIC50 (converted)): > 20 µM

Structure (SMILES): NC(=O)NC(CC(=O)O)C(=O)O (stereo not drawn)
- IC50: > 20 µM
- IC50 (read-out: pIC50 (converted)): > 20 µM

Structure (SMILES): C[C@@H](NCCCc1cccc(C(F)(F)F)c1)c1cccc2ccccc12
- IC50: > 20 µM
- IC50 (read-out: pIC50 (converted)): > 20 µM

Structure (SMILES): CC(=O)Oc1cc2c(s1)CCN(C(C(=O)C1CC1)c1ccccc1F)C2 (stereo not drawn)
- IC50: > 20 µM
- IC50 (read-out: pIC50 (converted)): > 20 µM

Structure (SMILES): CC1(C)C2CC[C@@]1(C)C(=O)C2
- IC50: > 20 µM
- IC50 (read-out: pIC50 (converted)): > 20 µM

Structure (SMILES): COc1c2ccoc2nc2c(OC)c(OC[C@@H](O)C(C)(C)O)ccc12
- IC50: > 20 µM
- IC50 (read-out: pIC50 (converted)): > 20 µM

Structure (SMILES): O=C1OCCN1/N=C\c1ccc([N+](=O)[O-])o1
- IC50: > 20 µM
- IC50 (read-out: pIC50 (converted)): > 20 µM

Structure (SMILES): CCCC(=O)Nc1ncnc2c1ncn2[C@@H]1O[C@@H]2OP(=O)(O)OC[C@H]2[C@H]1OC(=O)CCC
- IC50: > 20 µM
- IC50 (read-out: pIC50 (converted)): > 20 µM

Structure (SMILES): CC(=O)OC(CC(=O)O)C[N+](C)(C)C (stereo not drawn)
- IC50: > 20 µM
- IC50 (read-out: pIC50 (converted)): > 20 µM

Structure (SMILES): Clc1cnccn1
- IC50: > 20 µM
- IC50 (read-out: pIC50 (converted)): > 20 µM

Structure (SMILES): C[C@]12CCC3C(CCC4=C(Cl)C(=O)CC[C@@]43C)C1CCC2O (stereo partly drawn)
- IC50: > 20 µM
- IC50 (read-out: pIC50 (converted)): > 20 µM

Structure (SMILES): C=C(C)C(=O)OCCCCCCCCCCCC
- IC50: > 20 µM
- IC50 (read-out: pIC50 (converted)): > 20 µM

Structure (SMILES): CC(C)[C@H](N/C(=N\S(=O)(=O)c1ccc(Cl)cc1)N1C[C@H](c2ccccc2)C(c2ccc(Cl)cc2)=N1)C(N)=O
- IC50: > 20 µM
- IC50 (read-out: pIC50 (converted)): > 20 µM

Structure (SMILES): CN1C2CCCC1CC(=O)C2
- IC50: > 20 µM
- IC50 (read-out: pIC50 (converted)): > 20 µM

Structure (SMILES): CCN(CC)CCOc1ccc(Cc2ccccc2)cc1
- IC50: > 20 µM
- IC50 (read-out: pIC50 (converted)): > 20 µM

Structure (SMILES): C[C@@H]1CC[C@]2(C(=O)O)CC[C@]3(C)C(=CCC4[C@@]5(C)CC[C@H](O)C(C)(C)C5CC[C@]43C)C2[C@H]1C (stereo partly drawn)
- IC50: > 20 µM
- IC50 (read-out: pIC50 (converted)): > 20 µM

Structure (SMILES): CCCN(CCC)c1cc(C)nc2c(-c3cnc(N(C)C)cc3C)c(C)nn12
- IC50: > 20 µM
- IC50 (read-out: pIC50 (converted)): > 20 µM

Structure (SMILES): CN1Cc2ccccc2[C@@H]2c3cccc4[nH]cc(c34)C[C@H]21
- IC50: > 20 µM
- IC50 (read-out: pIC50 (converted)): > 20 µM

Structure (SMILES): CC(C)(CO)C(=O)SCCOP(=O)(NCc1ccccc1)OC[C@H]1O[C@@H](n2cnc3c(=O)[nH]c(N)nc32)[C@](C)(O)[C@@H]1O (stereo partly drawn)
- IC50: > 20 µM
- IC50 (read-out: pIC50 (converted)): > 20 µM

Structure (SMILES): O=C(/N=C(/Nc1cc(F)cc(Cl)c1)Nc1cc(C(F)(F)F)[nH]n1)c1cccc(Cl)c1
- IC50: > 20 µM
- IC50 (read-out: pIC50 (converted)): > 20 µM

Structure (SMILES): Cc1nc(N(C)C(=O)Cc2ccc(-c3ccccn3)cc2)sc1S(N)(=O)=O
- IC50: > 20 µM
- IC50 (read-out: pIC50 (converted)): > 20 µM

Structure (SMILES): COc1ccc(-n2[nH]c(=O)c3[nH]c4cc(Cl)ccc4c(=O)c3c2=O)c(C)c1
- IC50: > 20 µM
- IC50 (read-out: pIC50 (converted)): > 20 µM

Structure (SMILES): CCCn1c(=O)c2nc(C34CC5CC(CC(C5)C3)C4)[nH]c2n(CCC)c1=O
- IC50: > 20 µM
- IC50 (read-out: pIC50 (converted)): > 20 µM

Structure (SMILES): CN[C@H]1[C@H](O)[C@H](O[C@@H]2[C@@H](O)[C@H](O[C@H]3O[C@H]([C@@H](C)O)[C@@H](O)[C@H](O)[C@H]3N)[C@@H](N)C[C@H]2N)OC[C@@]1(C)O
- IC50: > 20 µM
- IC50 (read-out: pIC50 (converted)): > 20 µM

Structure (SMILES): C=C1[C@@H](O)C23C[C@@H]1[C@@H](O)C[C@H]2[C@@]12[C@@H]4[C@H]3C[C@@H]1[C@@](C)(CC[C@@H]2O)CN4CC
- IC50: > 20 µM
- IC50 (read-out: pIC50 (converted)): > 20 µM

Structure (SMILES): Cc1nc(N2CCOC[C@@H]2C)nc(-n2ccnc2)c1[N+](=O)[O-]
- IC50: > 20 µM
- IC50 (read-out: pIC50 (converted)): > 20 µM

Structure (SMILES): CCCCCCCCCC(=O)N[C@@H](Cc1c[nH]c2ccccc12)C(=O)N[C@H](CC(N)=O)C(=O)N[C@@H](CC(=O)O)C(=O)N[C@@H]1C(=O)NCC(=O)N[C@@H](CCCN)C(=O)N[C@@H](CC(=O)O)C(=O)N[C@H](C)C(=O)N[C@@H](CC(=O)O)C(=O)NCC(=O)N[C@H](CO)C(=O)N[C@@H]([C@H](C)CC(=O)O)C(=O)N[C@@H](CC(=O)c2ccccc2N)C(=O)O[C@@H]1C
- IC50: > 20 µM
- IC50 (read-out: pIC50 (converted)): > 20 µM

Structure (SMILES): CCC(=O)OC1C(OC2C(C)C(OC3CC(C)(OC)C(O)C(C)O3)C(C)C(=O)OC(CC)C(C)(O)C(O)C(C)C(=O)C(C)CC2(C)O)OC(C)CC1N(C)C (stereo not drawn)
- IC50: > 20 µM
- IC50 (read-out: pIC50 (converted)): > 20 µM

Structure (SMILES): O=C(O)CC[C@H]1CC[C@](c2cc(F)ccc2F)(S(=O)(=O)c2ccc(Cl)cc2)CC1
- IC50: > 20 µM
- IC50 (read-out: pIC50 (converted)): > 20 µM

Structure (SMILES): CO[C@H]1/C=C\C=C(\C)C(=O)NC2=CC(=O)C(NCCN(C)C)=C(C[C@@H](C)C[C@H](OC)[C@H](O)[C@@H](C)/C=C(/C)[C@@H]1OC(N)=O)C2=O
- IC50: > 20 µM
- IC50 (read-out: pIC50 (converted)): > 20 µM

Structure (SMILES): C=C(C)[C@@H]1CC[C@]2(C(=O)O)CC[C@]3(C)[C@H](CCC4[C@@]5(C)CC[C@@H](O)C(C)(C)C5CC[C@]43C)C12 (stereo partly drawn)
- IC50: > 20 µM
- IC50 (read-out: pIC50 (converted)): > 20 µM

Structure (SMILES): N[C@@H](CCC(=O)N[C@@H](Cc1c[nH]c2ccccc12)C(=O)O)C(=O)O
- IC50: > 20 µM
- IC50 (read-out: pIC50 (converted)): > 20 µM

Structure (SMILES): COc1ccc(-c2ccc(=O)n(Cc3ccc(Cl)cc3F)c2)cc1
- IC50: > 20 µM
- IC50 (read-out: pIC50 (converted)): > 20 µM

Structure (SMILES): CC(=O)O[C@H]1CC[C@@]2(C)C(CC[C@]3(C)C2C(=O)C=C2[C@H]4C[C@@](C)(C(=O)O)CC[C@]4(C)CC[C@]23C)C1(C)C (stereo partly drawn)
- IC50: > 20 µM
- IC50 (read-out: pIC50 (converted)): > 20 µM

Structure (SMILES): CC(C)C(=O)Nc1ccc([N+](=O)O)c(C(F)(F)F)c1
- IC50: > 20 µM
- IC50 (read-out: pIC50 (converted)): > 20 µM

Structure (SMILES): CC(=O)O[C@H]1CC[C@@]2(C)[C@H](CC[C@@H]3[C@@H]2CC[C@]2(C)C(=O)CC[C@@H]32)C1
- IC50: > 20 µM
- IC50 (read-out: pIC50 (converted)): > 20 µM

Structure (SMILES): O=C(O)C1N[C@H](C(=O)O)CS1 (stereo partly drawn)
- IC50: > 20 µM
- IC50 (read-out: pIC50 (converted)): > 20 µM

Structure (SMILES): CC12CCC(O)CC1CCC1[C@@H]2CC(O)C2(C)C(C3=CC(=O)OC3)CCC12O (stereo partly drawn)
- IC50: > 20 µM
- IC50 (read-out: pIC50 (converted)): > 20 µM

Structure (SMILES): CC(C)[C@@]1(NC(=O)[C@@H]2C[C@@H]3c4cccc5[nH]cc(c45)C[C@H]3N(C)C2)O[C@@]2(O)[C@@H]3CCCN3C(=O)[C@H](C)N2C1=O
- IC50: > 20 µM
- IC50 (read-out: pIC50 (converted)): > 20 µM

Structure (SMILES): c1cnc2c(c1)CC1(CN3CCC1CC3)O2 (stereo not drawn)
- IC50: > 20 µM
- IC50 (read-out: pIC50 (converted)): > 20 µM

Structure (SMILES): CCC[C@@H]1C[C@@H](C(=O)NC(C2O[C@H](SC)[C@H](OP(=O)(O)O)[C@@H](O)[C@H]2O)[C@H](C)Cl)N(C)C1 (stereo partly drawn)
- IC50: > 20 µM
- IC50 (read-out: pIC50 (converted)): > 20 µM

Structure (SMILES): NCCC(O)C(=O)N[C@H]1C[C@@H](N)[C@H](O[C@H]2O[C@H](CN)[C@@H](O)[C@H](O)[C@H]2O)[C@@H](O)[C@@H]1O[C@H]1O[C@H](CO)[C@@H](O)[C@H](N)[C@H]1O (stereo partly drawn)
- IC50: > 20 µM
- IC50 (read-out: pIC50 (converted)): > 20 µM

Structure (SMILES): CC(CNS(=O)(=O)C(C)C)c1ccc(NC(=O)c2cc(F)cc(F)c2)cc1 (stereo not drawn)
- IC50: > 20 µM
- IC50 (read-out: pIC50 (converted)): > 20 µM

Structure (SMILES): CC1CNc2c(cccc2S(=O)(=O)N[C@@H](CCCNC(=N)N)C(=O)N2CC[C@H](C)C[C@@H]2C(=O)O)C1 (stereo partly drawn)
- IC50: > 20 µM
- IC50 (read-out: pIC50 (converted)): > 20 µM

Structure (SMILES): C[C@@H]1CC[C@@]2(NC1)O[C@H]1C[C@H]3[C@@H]4CC=C5C[C@@H](O)CC[C@]5(C)[C@H]4CC[C@]3(C)[C@H]1[C@@H]2C
- IC50: > 20 µM
- IC50 (read-out: pIC50 (converted)): > 20 µM

Structure (SMILES): Nc1nonc1/C(=N/O)Nc1ccc(F)c(Cl)c1
- IC50: > 20 µM
- IC50 (read-out: pIC50 (converted)): > 20 µM

Structure (SMILES): O=C1Nc2ccc(I)cc2/C1=C/c1cc(Br)c(O)c(Br)c1
- IC50: > 20 µM
- IC50 (read-out: pIC50 (converted)): > 20 µM
